Measured values as given in patent publication US20130060020A1, “Compounds useful for treating neurodegenerative disorders” (Satori Pharmaceuticals, Inc., priority 2011, published 2013).
Where two headings read alike, the source gives them in different places.

Key:
Type in all cases: cell-based
Details in all cases: Homo sapiens, 5 hours treatment
[1] = tested on: Aβ-42; test: Aβ-42 MSD 3-plex ELISA, conditioned media of 2B7 cells
Description: (§1) Assays were conducted to determine the ability of a Compound of Formula I to modulate […], and Aβ-38.
(§2) Plates with capture antibodies were blocked for 1-2 hours at room temperature with 150 μL of the manufactures blocking reagent.
(§3) Cultured 2B7 cells in 96 well plate with 250 μL of media per well until confluent;
(§4) Prepared serial dilutions of compounds in DMSO at 100× the final desired concentration;
(§5) Washed wells with 2B7 cells 1× with 250 μL of media;
(§6) Diluted DMSO stocks 1:100 into media: • Added 250 μL of media containing compounds (1% DMSO) to wells with 2B7 cells for 5 hours at 37° C.
(§7) ELISA Sample Prep: • Diluted conditioned media: 1 part media with 1% DMSO and 1 part blocking buffer; • 150 μL of the 250 μL of conditioned media were used.
(§8) Prepared per manufacturer's protocol (see above). • Seven point standard curve samples were prepared that contained Aβ-42, Aβ-40, and Aβ-38. The highest concentration of Aβ-42 and Aβ-38 was 3,000 pg/mL and the highest concentration of Aβ-40 was 10,000 pg/mL. Subsequent serial dilutions were 1:3 and the final composition of each sample was 1 part blocking buffer and 1 part cell medium containing 1% DMSO.
(§9) Overnight Sample Incubation: • Blocked plates are washed 5× with MSD wash buffer with a plate washer; • […] and blocker G reagent in MSD blocking solution was added; • 25 μL of samples (1 part conditioned media containing 1% DMSO and 1 part MSD blocking buffer) were then added; • Plates were incubated overnight at 4 degrees C. or 2 hours at room temperature.
(§10) Final Wash and Readout: • Washed wells 5× with MSD wash buffer; • Added 150 μL 2×MSD read buffer; • Read with MSD imager.
(§11) Aβ peptide levels for each peptide were calculated from the standard curve using the MSD software provided with the MSD 2400 Imager. Percent vehicle values for each compound dosage were then calculated and fit to a 4 parameter curve generating IC50 values.
(§12) Conditioned media from 2B7 cells (Mayo) was collected after 5 hours of treatment and diluted with 1 volume of Meso Scale Discovery (MSD, Gaithersburg Md.) blocking buffer (1% BSA in MSD wash buffer). For total Aβ measurements, standard-bind, multi-array single spot 96 well MSD ELISA plates were coated with unlabeled 4G8 capture antibody (Covance, Princeton, N.J.) overnight at 4° C. and then blocked with 5% BSA in MSD wash buffer for 1 hour at room temperature with orbital shaking Diluted 2B7 conditioned media were added to the blocked in-house total Aβ MSD plates with SULFO-TAG 6E10 antibody (MSD). For Aβ38, 40 and 42 measurements, diluted 2B7 conditioned media were added to blocked human (6E10) Aβ 3-Plex plates (MSD). Total Aβ and Aβ 3-Plex plates were incubated for 2 hours at room temperature with orbital shaking followed by washing and reading according to the manufacturer's instructions (SECTOR® Imager 2400, MSD). Aβ concentrations were converted to percent vehicle values and used to construct dose response curves which were fitted to […] using GraphPad Prism version 5.00 for Windows, GraphPad Software, San Diego Calif. USA.

[2] = tested on: Aβ-38; test: Aβ-38 MSD 3-plex ELISA, conditioned media of 2B7 cells
Description: as §1, §2, §3, §4, §5, §6, §7, §8, §9, §10, §11, §12

[3] = tested on: Aβ-40; test: Aβ-40 MSD 3-plex ELISA, conditioned media of 2B7 cells
Description: as §1, §2, §3, §4, §5, §6, §7, §8, §9, §10, §11, §12

[4] = inflection of dose response curve, read-out: Aβ 42 DR IC50 Inflection
[5] = inflection of dose response curve, read-out: Aβ 38 DR IC50 Inflection
[6] = inflection of dose response curve, read-out: Aβ 40 DR IC50 Inflection

Row | SMILES | IC50 [1, 4] [nM] | IC50 ([1]; read-out: Aβ 42 IC50) [nM] | IC50 [2, 5] [nM] | IC50 ([2]; read-out: Aβ 38 IC50) [nM] | IC50 [3, 6] [nM] | IC50 ([3]; read-out: Aβ 40 IC50) [nM]
1 | CCO[C@@H]([C@H]1C[C@@H](C)[C@H]2[C@H](O1)[C@H](O)[C@@]1(C)[C@@H]3CC[C@H]4C(C)(C)[C@@H](O[C@H]5CN([C@H]6CCN(CC)C6=O)CCO5)CC[C@@]45C[C@@]35CC[C@]21C)C(C)(C)O [Compound I-1] | 501 to 1000 | 501 to 1000 | 501 to 1000 | 501 to 1000 | > 5000 | > 5000
2 | CCO[C@@H]([C@H]1C[C@@H](C)[C@H]2[C@H](O1)[C@H](O)[C@@]1(C)[C@@H]3CC[C@H]4C(C)(C)[C@@H](O[C@H]5CN(C6CN(CCF)C6)CCO5)CC[C@@]45C[C@@]35CC[C@]21C)C(C)(C)O [Compound I-4] | 100 to 500 | 100 to 500 | – | 501 to 1000 | > 5000 | 1000 to 5000
3 | CCO[C@@H]([C@H]1C[C@@H](C)[C@H]2[C@H](O1)[C@H](O)[C@@]1(C)[C@@H]3CC[C@H]4C(C)(C)[C@@H](O[C@H]5CN(C6CN(CC(F)F)C6)CCO5)CC[C@@]45C[C@@]35CC[C@]21C)C(C)(C)O [Compound I-9] | 100 to 500 | 100 to 500 | – | 501 to 1000 | – | 1000 to 5000
4 | CCO[C@@H]([C@H]1C[C@@H](C)[C@H]2[C@H](O1)[C@H](O)[C@@]1(C)[C@@H]3CC[C@H]4C(C)(C)[C@@H](O[C@H]5CN(C(C)(C)C6CN(C)C6)CCO5)CC[C@@]45C[C@@]35CC[C@]21C)C(C)(C)O [Compound I-12] | 100 to 500 | 100 to 500 | – | 100 to 500 | – | 1000 to 5000
5 | CCO[C@@H]([C@H]1C[C@@H](C)[C@H]2[C@H](O1)[C@H](O)[C@@]1(C)[C@@H]3CC[C@H]4C(C)(C)[C@@H](O[C@H]5CN(C6CN(C(C)(C)C)C6)CCO5)CC[C@@]45C[C@@]35CC[C@]21C)C(C)(C)O [Compound I-14] | < 100 | < 100 | – | 100 to 500 | – | 1000 to 5000
6 | CCO[C@@H]([C@H]1C[C@@H](C)[C@H]2[C@H](O1)[C@H](O)[C@@]1(C)[C@@H]3CC[C@H]4C(C)(C)[C@@H](O[C@H]5CN(C(C)(C)C6CN(C7COC7)C6)CCO5)CC[C@@]45C[C@@]35CC[C@]21C)C(C)(C)O [Compound I-15] | 100 to 500 | 100 to 500 | – | 501 to 1000 | > 5000 | 1000 to 5000
7 | CCO[C@@H]([C@H]1C[C@@H](C)[C@H]2[C@H](O1)[C@H](O)[C@@]1(C)[C@@H]3CC[C@H]4C(C)(C)[C@@H](O[C@H]5CN(C6CN(CC(C)(C)C)C6)CCO5)CC[C@@]45C[C@@]35CC[C@]21C)C(C)(C)O [Compound I-16] | 100 to 500 | 100 to 500 | – | 501 to 1000 | – | 1000 to 5000
8 | CCO[C@@H]([C@H]1C[C@@H](C)[C@H]2[C@H](O1)[C@H](O)[C@@]1(C)[C@@H]3CC[C@H]4C(C)(C)[C@@H](O[C@H]5CN(CC6CN(CC(C)(C)C)C6)CCO5)CC[C@@]45C[C@@]35CC[C@]21C)C(C)(C)O [Compound I-18] | 100 to 500 | 100 to 500 | – | 501 to 1000 | 1000 to 5000 | 1000 to 5000
9 | CCO[C@@H]([C@H]1C[C@@H](C)[C@H]2[C@H](O1)[C@H](O)[C@@]1(C)[C@@H]3CC[C@H]4C(C)(C)[C@@H](O[C@H]5CN(C6CCN(C7CCC7)CC6)CCO5)CC[C@@]45C[C@@]35CC[C@]21C)C(C)(C)O [Compound I-21] | 100 to 500 | 100 to 500 | 501 to 1000 | 501 to 1000 | 1000 to 5000 | 1000 to 5000
10 | CCO[C@@H]([C@H]1C[C@@H](C)[C@H]2[C@H](O1)[C@H](O)[C@@]1(C)[C@@H]3CC[C@H]4C(C)(C)[C@@H](O[C@H]5CN(CC6CN(C7CCC7)C6)CCO5)CC[C@@]45C[C@@]35CC[C@]21C)C(C)(C)O [Compound I-23] | 100 to 500 | 100 to 500 | – | 100 to 500 | > 5000 | 1000 to 5000
11 | CCO[C@@H]([C@H]1C[C@@H](C)[C@H]2[C@H](O1)[C@H](O)[C@@]1(C)[C@@H]3CC[C@H]4C(C)(C)[C@@H](O[C@H]5CN(CC6CN(CC7(C)COC7)C6)CCO5)CC[C@@]45C[C@@]35CC[C@]21C)C(C)(C)O [Compound I-26] | 100 to 500 | 100 to 500 | 1000 to 5000 | 501 to 1000 | 1000 to 5000 | 1000 to 5000
12 | CCO[C@@H]([C@H]1C[C@@H](C)[C@H]2[C@H](O1)[C@H](O)[C@@]1(C)[C@@H]3CC[C@H]4C(C)(C)[C@@H](O[C@H]5CN(C6(C)CN(C7CCC7)C6)CCO5)CC[C@@]45C[C@@]35CC[C@]21C)C(C)(C)O [Compound I-27] | < 100 | 100 to 500 | – | 100 to 500 | – | 1000 to 5000
13 | CCO[C@@H]([C@H]1C[C@@H](C)[C@H]2[C@H](O1)[C@H](O)[C@@]1(C)[C@@H]3CC[C@H]4C(C)(C)[C@@H](O[C@H]5CN(C6CCN(C)CC6)CCO5)CC[C@@]45C[C@@]35CC[C@]21C)C(C)(C)O [Compound I-29] | < 100 | < 100 | – | 100 to 500 | – | 1000 to 5000
14 | CCO[C@@H]([C@H]1C[C@@H](C)[C@H]2[C@H](O1)[C@H](O)[C@@]1(C)[C@@H]3CC[C@H]4C(C)(C)[C@@H](O[C@H]5CN(C6(C)CN(C)C6)CCO5)CC[C@@]45C[C@@]35CC[C@]21C)C(C)(C)O [Compound I-31] | < 100 | < 100 | – | 100 to 500 | – | 1000 to 5000
15 | CCO[C@@H]([C@H]1C[C@@H](C)[C@H]2[C@H](O1)[C@H](O)[C@@]1(C)[C@@H]3CC[C@H]4C(C)(C)[C@@H](O[C@H]5CN(C6CN(CC7(C)COC7)C6)CCO5)CC[C@@]45C[C@@]35CC[C@]21C)C(C)(C)O [Compound I-32] | 100 to 500 | 100 to 500 | – | 100 to 500 | – | 1000 to 5000
16 | CCO[C@@H]([C@H]1C[C@@H](C)[C@H]2[C@H](O1)[C@H](O)[C@@]1(C)[C@@H]3CC[C@H]4C(C)(C)[C@@H](O[C@H]5CN(C6(C)CN(CC(C)(C)C)C6)CCO5)CC[C@@]45C[C@@]35CC[C@]21C)C(C)(C)O [Compound I-33] | < 100 | 100 to 500 | – | 100 to 500 | – | –
17 | CCO[C@@H]([C@H]1C[C@@H](C)[C@H]2[C@H](O1)[C@H](O)[C@@]1(C)[C@@H]3CC[C@H]4C(C)(C)[C@@H](O[C@H]5CN(C6(C)CN(CC7(C)COC7)C6)CCO5)CC[C@@]45C[C@@]35CC[C@]21C)C(C)(C)O [Compound I-34] | 100 to 500 | 100 to 500 | – | 501 to 1000 | – | 1000 to 5000
18 | CCO[C@@H]([C@H]1C[C@@H](C)[C@H]2[C@H](O1)[C@H](O)[C@@]1(C)[C@@H]3CC[C@H]4C(C)(C)[C@@H](O[C@H]5CN(C6(C)CN(C7COC7)C6)CCO5)CC[C@@]45C[C@@]35CC[C@]21C)C(C)(C)O [Compound I-36] | 100 to 500 | 100 to 500 | – | 501 to 1000 | – | –
19 | CCO[C@@H]([C@H]1C[C@@H](C)[C@H]2[C@H](O1)[C@H](O)[C@@]1(C)[C@@H]3CC[C@H]4C(C)(C)[C@@H](O[C@H]5CN(C6(C)CN(CCOC)C6)CCO5)CC[C@@]45C[C@@]35CC[C@]21C)C(C)(C)O [Compound I-37] | < 100 | 100 to 500 | – | 100 to 500 | – | 1000 to 5000
20 | CCO[C@@H]([C@H]1C[C@@H](C)[C@H]2[C@H](O1)[C@H](O)[C@@]1(C)[C@@H]3CC[C@H]4C(C)(C)[C@@H](O[C@H]5CN(CCN6CC(F)(F)C6)CCO5)CC[C@@]45C[C@@]35CC[C@]21C)C(C)(C)O [Compound I-64] | 100 to 500 | 100 to 500 | – | 501 to 1000 | – | –
